Test results from article PMC12475274, “Harnessing indole scaffolds to identify small-molecule IRE1α inhibitors modulating XBP1 mRNA splicing” (Nature Communications, 2025).
“And” between values parts separate entries of the source, which are not always exact repeats. Equal values may be shown once. “Also recorded” adds a separate entry of the source. Read-outs that look alike come from different tables or passages of the source.

What was measured:
[1] = target: T1, phosphorylated IRE1α (p-IRE1α) (Homo sapiens, UniProt O75460); assay: FRET-based IRE1α RNase activity assay, phosphorylated IRE1α; type: biochemical; details: for inhibition(%): p-IRE1a
T1 construct: Human IRE1α kinase and RNase domain (residues 547–977) was subcloned into pLIB plasmid; His tag (with TEV cleavage site) (N, cleaved yes); made in house; host or cells: Sf9 insect cells, baculovirus (Bac-to-Bac)
Method in brief: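 Sf9-expressed IRE1α kinase-RNase domain (residues 547–977), fully phosphorylated fraction, 4 nM, preincubated with compound 30 min at RT, then 200 nM FAM/BHQ1 XBP1 RNA added in HEPES pH 7.5 buffer. Fluorescence (ex 485/em 535 nm) read kinetically for 1 h at RT; inhibition from linear slopes, IC50 by concentration-response fit.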

dephosphorylated IRE1α = target: T2, dephosphorylated IRE1α (Homo sapiens, UniProt O75460); assay: Isothermal titration calorimetry (ITC), incl. competitive ITC; type: binding
T2 construct: Human IRE1α kinase and RNase domain (residues 547–977) was subcloned into pLIB plasmid; His tag (with TEV cleavage site) (N, cleaved yes); made in house; host or cells: Sf9 insect cells, baculovirus (Bac-to-Bac)
Method: The dephosphorylated IRE1α protein was used directly after purification, ITC experiments were carried out at 25 °C using MicroCal PEAQ-ITC system (Malvern) in buffer 25 mM HEPES pH 7.5, 250 mM NaCl, 1 mM TCEP, 5% glycerol, 1% DMSO. The solution was diluted to a final 1% DMSO in the same buffer as for the protein. Protein and compound solution were degassed before loading to the cell and syringe respectively. Unless otherwise noted, 200 μM of compound was loaded into the syringe and 10 μM of IRE1α protein was loaded into the sample cell. For competitive ITC, the protein was incubated with the indicated compound at 25 °C (final 1% DMSO) before loading to the cell. Instrument settings were: reference power 10 μcal/s, feedback high, stir speed 750 rpm, initial delays 60 s, injection spacing 150 s, injection duration 4 s. All experiments were performed with a single 0.4 μL injection followed by 18 (or 15), 2 μL injections. Data were analyzed using MicroCal PEAQ-ITC analysis software. The one set of sites fitting model is used for the calorimetry data analysis, with cell concentration and syringe concentration as the input parameters. For compound IA01, the N was set to 1 to improve the fit.

IRE1α = target: T3, IRE1α (Homo sapiens, UniProt O75460); assay: Differential scanning fluorimetry (DSF), IRE1α; type: binding; details: for IRE1a ∆Tm: DSF, individual measurements; for IRE1 ∆Tm(°C): Supplementary Fig. 3c, replicate values
T3 construct: Human IRE1α kinase and RNase domain (residues 547–977) was subcloned into pLIB plasmid; His tag (with TEV cleavage site) (N, cleaved yes); made in house; host or cells: Sf9 insect cells, baculovirus (Bac-to-Bac)
Method: The DSF assay was performed in PBS buffer containing 2 mM DTT, in a total reaction volume of 20 µl with indicated compounds (final 1% DMSO) and the final concentration of 1 µM IRE1α protein and 5× SYPRO Orange fluorescent dye (5000× in DMSO, Sigma S5692). The melting curve was measured at a temperature range from 25 °C to 95 °C and in increments of 1 °C for 30 s using a Bio-Rad CFX96 Real-Time PCR detection system with the FRET scan mode. The melting temperature (Tm) was obtained by fitting the melting curve to Boltzmann sigmoidal in GraphPad Prism and the thermal shift (∆Tm) was calculated by using the equation: ∆Tm = Tm(compound) -Tm(DMSO).

[2] = FRET assay, RNase activity, mean (± SEM), read-out: p-IRE1α IC50
[3] = FRET assay, source data, unit from Fig. 3, read-out: p-IRE1a IC50, individual replicates (n1-n4)
[4] = 200 μM compound into 10 μM IRE1α, no competitor

T2 sequence (O75460 547-977): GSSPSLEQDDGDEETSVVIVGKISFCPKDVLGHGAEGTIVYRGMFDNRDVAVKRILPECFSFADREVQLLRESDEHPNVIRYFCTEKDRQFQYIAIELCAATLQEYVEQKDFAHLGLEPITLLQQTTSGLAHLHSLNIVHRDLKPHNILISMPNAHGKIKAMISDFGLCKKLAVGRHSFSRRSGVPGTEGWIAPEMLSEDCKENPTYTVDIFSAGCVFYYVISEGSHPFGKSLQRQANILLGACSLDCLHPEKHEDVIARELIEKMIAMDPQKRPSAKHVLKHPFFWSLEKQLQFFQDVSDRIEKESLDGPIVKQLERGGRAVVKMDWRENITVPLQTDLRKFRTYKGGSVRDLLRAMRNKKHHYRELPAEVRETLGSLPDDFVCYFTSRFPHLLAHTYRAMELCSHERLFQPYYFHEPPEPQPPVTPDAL
T3 sequence (O75460 547-977): as above
T1 sequence (O75460 547-977): as above

Which “effect on p-IRE1α RNase activity in the FRET assay” value [1] does the source give for CCOC(=O)Nc1cccc2c(Oc3ncccc3-c3ccnc(N[C@H]4CCCNC4)n3)c(C)ccc12 [Compound G1749, reference compound] here?
The value was “inhibiting p-IRE1α; also recorded: inhibit the p-IRE1α RNase activity”.

And the “inhibition(%)” value ([1]; 5.55556 μM)?
Its value is 93.9541% and 94.7061% and 91.8428% and 92.9515%.

And the “inhibition(%)” value ([1]; 16.6667 μM)?
The value was 92.2815% and 93.8095% and 92.7972% and 92.696%.

What about the “inhibition(%)” value ([1]; 50 μM) of the same molecule?
Its value is 92.1465% and 91.4042% and 91.8332% and 89.3845%.

And the “KD (competition ITC)” value (dephosphorylated IRE1α; G1749 to IRE1α with 1 mM IA107, ND, not detectable)?
Its value is “did not show a detectable binding”.

What does the source list for COc1ccc2c(c1)c(CCC(=O)O)c(C)n2C(=O)c1ccc(Cl)cc1 [IA01]?
stabilization of IRE1α in DSF (IRE1α): stabilized IRE1α concentration-dependently; IRE1a ∆Tm (IRE1α; compound 25 μM): 1.17 °C and 1.02 °C; IRE1a ∆Tm (IRE1α; compound 50 μM): 1.57 °C and 1.89 °C; inhibition at 50 µM ([1]; FRET assay at 50 μM, mean (± SEM), read-out: p-IRE1α inhibition%): 99.3%; p-IRE1a Inhibiton%, individual measurements ([1]; FRET assay at 50 μM, source data, 50 µM): 102.461% and 99.7014% and 101.879% and 92.3671% and 96.3072%; inhibition at 50 µM ([1]; FRET assay at 50 μM, source data, read-out: p-IRE1a Inhibiton%, individual measurements): 103%; IC50 [1, 2]: 320 nM; IC50 [1, 3]: 544 nM and 136 nM and 264 nM and 325 nM; -TΔS (ITC) (dephosphorylated IRE1α; [4]): -2.14 kcal/mol; N(sites) (ITC) (dephosphorylated IRE1α; [4]): 1; ΔG (ITC) (dephosphorylated IRE1α; [4]): -7.62 kcal/mol; ΔH (ITC) (dephosphorylated IRE1α; [4]): -5.48 ± 2.28 kcal/mol

What does the source list for COc1ccc2c(c1)c(CCC(=O)O)c(C)n2C(=O)c1ccc2ccccc2c1 [IA34]?
stabilization of IRE1α in DSF (IRE1α): did not show any detectable changes; p-IRE1α IC50 ([1]; FRET assay, RNase activity, mean (± SEM)): IC₅₀ not reached; IC50 [1, 2]: > 20000 nM; inhibition(%) ([1]; IA34 0.000847 μM, Supplementary Fig. 3b, replicate values): 2.43% and -1.86% and 1.39%; inhibition(%) ([1]; IA34 0.00254 μM, Supplementary Fig. 3b, replicate values): -5.52% and -18.14% and 21.30% and 14.33%; inhibition(%) ([1]; IA34 0.007621 μM, Supplementary Fig. 3b, replicate values): 0.79% and -13.95% and -1.17% and 1.14%; inhibition(%) ([1]; IA34 0.022862 μM, Supplementary Fig. 3b, replicate values): 1.11% and -4.73% and 39.51% and 0.29%; inhibition(%) ([1]; IA34 0.068587 μM, Supplementary Fig. 3b, replicate values): -18.24% and -15.02% and -11.07% and -8.20%; inhibition(%) ([1]; IA34 0.205761 μM, Supplementary Fig. 3b, replicate values): -19.34% and -16.85% and 12.47% and -7.35%; inhibition(%) ([1]; IA34 0.617284 μM, Supplementary Fig. 3b, replicate values): 15.53% and 10.67% and -18.52% and -10.41%; inhibition(%) ([1]; IA34 1.85185 μM, Supplementary Fig. 3b, replicate values): -19.37% and -18.05% and -6.66% and -19.44%; inhibition(%) ([1]; IA34 5.55556 μM, Supplementary Fig. 3b, replicate values): 14.49% and 0.73% and 11.46% and -10.03%; inhibition(%) ([1]; IA34 16.6667 μM, Supplementary Fig. 3b, replicate values): 26.07% and 13.29% and -8.49% and -17.54%; inhibition(%) ([1]; IA34 50 μM, Supplementary Fig. 3b, replicate values): -20.79% and 2.08% and 7.61% and 4.39%; binding to IRE1α in ITC (dephosphorylated IRE1α): no binding signal

Which “stabilization of IRE1α in DSF” value (IRE1α) does the source give for COc1ccc2c(c1)c(CCC(=O)O)c(C)n2C(=O)c1ccccc1 [IA64] here?
The value was “concentration-dependently stabilized”.

And the “IRE1 ∆Tm(°C)” value (IRE1α; compound 6.25 μM)?
The value was 1.2 °C and 1.21 °C.

And the “IRE1 ∆Tm(°C)” value (IRE1α; compound 12.5 μM)?
The value was 1.94 °C and 2.05 °C.

What about the “IRE1 ∆Tm(°C)” value (IRE1α; compound 25 μM) of the same molecule?
Its value is 2.82 °C and 2.92 °C.

What about the “IRE1 ∆Tm(°C)” value (IRE1α; compound 50 μM) of the same molecule?
The value was 3.88 °C.

What about the IC50 [1, 2] of the same molecule?
The IC50 was 37.4 nM.

And the IC50 ([1]; FRET assay, read-out: p-IRE1α IC50 (RNase activity))?
The IC50 was 30 nM.

What about the IC50 [1, 3] of the same molecule?
Its IC50 is 61 nM and 17 nM and 34 nM and 26 nM.

What about the Kd (dephosphorylated IRE1α; titrating 200 μM compound into 10 μM IRE1α, no competitor (DMSO), read-out: KD (ITC)) of the same molecule?
The Kd was 2960 nM.
